Assays:
Type in all cases: in vivo
[1] = test system: canarygrass (Phalaris minor); assay: Test B postemergence plant response; conditions: for Canarygrass plant response rating (0 to 100 scale): 62 g ai/ha, 0 is no effect, 13 to 15 days
Method in brief: (§1)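 Plants at the 1- to 4-leaf stage (2 to 18 cm tall), grown in pots of peat moss/vermiculite medium with wetting agent and starter nutrients, received postemergence applications of test chemicals. After 13 to 15 days in a greenhouse, injury was rated visually against untreated controls on a 0 (no effect) to 100 (complete control) scale.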

[2] = test system: windgrass (Apera spica-venti); assay: Test B postemergence plant response; conditions: for Windgrass plant response rating (0 to 100 scale): 62 g ai/ha, postemergence, 0 is no effect, 100 is complete control, 13 to 15 days; for Plant response rating, Windgrass: Postemergence, 125 g ai/ha, scale 0 to 100 (0 no effect, 100 complete control)
Method in brief: as §1

[3] = test system: chickweed (Stellaria media); assay: Test B postemergence plant response; conditions: for Chickweed plant response rating (0 to 100 scale): 62 g ai/ha, 0 is no effect, 13 to 15 days
Method in brief: as §1

[4] = test system: winter barley (Hordeum vulgare); assay: Test B postemergence plant response; conditions: for Barley plant response rating (0 to 100 scale): 62 g ai/ha, 0 is no effect, 13 to 15 days
Method in brief: as §1

[5] = test system: wheat (Triticum aestivum); assay: Test B pre-/postemergence plant response; conditions: for Wheat plant response rating (0 to 100 scale): 62 g ai/ha, postemergence, 0 is no effect, 100 is complete control, 13 to 15 days; for Plant response rating, Wheat: Postemergence, 125 g ai/ha, scale 0 to 100 (0 no effect, 100 complete control)
Method in brief: (§2)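 Steps: sow seed in loam–sand soil and spray preemergence, or grow plants in peat-based medium to 1–4 leaves (2–18 cm) and spray postemergence; formulation is non-phytotoxic solvent plus surfactant; hold in greenhouse 13–15 days; score visually vs controls, 0 = no effect, 100 = complete control.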

[6] = test system: lambsquarters (Chenopodium album); assay: Test B pre-/postemergence plant response; conditions: for Lambsquarters plant response rating (0 to 100 scale): 62 g ai/ha, 0 is no effect, 13 to 15 days
Method in brief: as §2

[7] = test system: bermudagrass (Cynodon dactylon); assay: Test B pre-/postemergence plant response; conditions: for Bermudagrass plant response rating (0 to 100 scale): 62 g ai/ha, 0 is no effect, 13 to 15 days
Method in brief: as §2

[8] = test system: pigweed (Amaranthus retroflexus); assay: Test B pre-/postemergence plant response; conditions: for Pigweed plant response rating (0 to 100 scale): 62 g ai/ha, 0 is no effect, 13 to 15 days
Method in brief: as §2

[9] = test system: ragweed (common ragweed, Ambrosia elatior); assay: Test B pre-/postemergence plant response; conditions: for Ragweed plant response rating (0 to 100 scale): 62 g ai/ha, postemergence, 0 is no effect, 100 is complete control, 13 to 15 days; for Plant response rating, Ragweed: Postemergence, scale 0 to 100 (0 no effect, 100 complete control)
Method in brief: as §2

[10] = test system: Italian ryegrass (Lolium multiflorum); assay: Test B pre-/postemergence plant response; conditions: for Ryegrass, Italian plant response rating (0 to 100 scale): 62 g ai/ha, postemergence, 0 is no effect, 100 is complete control, 13 to 15 days; for Plant response rating, Ryegrass, Italian: Postemergence, scale 0 to 100 (0 no effect, 100 complete control)
Method in brief: as §2

[11] = 31 g ai/ha, postemergence, scale 0 to 100, 0 is no effect, 100 is complete control
[12] = postemergence, 100 is complete control
[13] = Postemergence, 125 g ai/ha, scale 0 to 100 (0 no effect, 100 complete control)
[14] = Postemergence, 250 g ai/ha, scale 0 to 100 (0 no effect, 100 complete control)

Row | Compound | Plant response rating, Canarygrass [1, 11] | Canarygrass plant response rating (0 to 100 scale) [1, 12] | Plant response rating, Canarygrass [1, 13] | Plant response rating, Canarygrass [1, 14] | Windgrass plant response rating (0 to 100 scale) [2] | Plant response rating, Windgrass [2] | Plant response rating, Chickweed [3, 11] | Chickweed plant response rating (0 to 100 scale) [3, 12] | Plant response rating, Chickweed [3, 13] | Plant response rating, Chickweed [3, 14] | Plant response rating, Barley [4, 11] | Barley plant response rating (0 to 100 scale) [4, 12] | Plant response rating, Barley [4, 13] | Plant response rating, Barley [4, 14] | Wheat plant response rating (0 to 100 scale) [5] | Plant response rating, Wheat [5] | Plant response rating, Lambsquarters [6, 11] | Lambsquarters plant response rating (0 to 100 scale) [6, 12] | Plant response rating, Lambsquarters [6, 13] | Plant response rating, Lambsquarters [6, 14] | other results
1 | COCCn1c(-c2cccs2)ncc(C(=O)C2=C(O)CCCC2=O)c1=O [Compound 108] | 0 | 5 | 5 | 5 | 10 | 30 | 85 | 100 | 100 | 100 | 0 | 0 | 0 | 0 | 0 | 0 | 98 | 98 | 100 | 100 | Plant response rating, Bermudagrass [7, 11]: 85; Bermudagrass plant response rating (0 to 100 scale) [7, 12]: 90; Plant response rating, Bermudagrass [7, 13]: 100; Plant response rating, Bermudagrass [7, 14]: 100; Plant response rating, Pigweed [8, 11]: 95; Pigweed plant response rating (0 to 100 scale) [8, 12]: 98; Plant response rating, Pigweed [8, 13]: 100; Plant response rating, Pigweed [8, 14]: 100; Ragweed plant response rating (0 to 100 scale) [9]: 85; Plant response rating, Ragweed ([9]; 125 g ai/ha): 95; Plant response rating, Ragweed ([9]; 250 g ai/ha): 98; Ryegrass, Italian plant response rating (0 to 100 scale) [10]: 0; Plant response rating, Ryegrass, Italian ([10]; 125 g ai/ha): 0; Plant response rating, Ryegrass, Italian ([10]; 250 g ai/ha): 0
2 | O=C1CCCC(O)=C1C(=O)c1cnc(-c2cccs2)n(CC2CCCO2)c1=O (centres unmarked) [Compound 109] | 0 | 0 | 30 | 45 | 40 | 60 | 90 | 98 | 98 | 100 | 0 | 0 | 5 | 5 | 5 | 5 | 98 | 98 | 100 | 100 | Plant response rating, Bermudagrass [7, 11]: 70; Bermudagrass plant response rating (0 to 100 scale) [7, 12]: 85; Plant response rating, Bermudagrass [7, 13]: 90; Plant response rating, Bermudagrass [7, 14]: 95; Plant response rating, Pigweed [8, 11]: 100; Pigweed plant response rating (0 to 100 scale) [8, 12]: 100; Plant response rating, Pigweed [8, 13]: 100; Plant response rating, Pigweed [8, 14]: 100; Ragweed plant response rating (0 to 100 scale) [9]: 95; Plant response rating, Ragweed ([9]; 125 g ai/ha): 95; Plant response rating, Ragweed ([9]; 250 g ai/ha): 98; Ryegrass, Italian plant response rating (0 to 100 scale) [10]: 0; Plant response rating, Ryegrass, Italian ([10]; 125 g ai/ha): 5; Plant response rating, Ryegrass, Italian ([10]; 250 g ai/ha): 40
